pIC50, pKi: −log10 of the molar value. Read-outs that look alike come from different tables or passages of the source.
Legend:
Format in all cases: biochemical
CYP3A4 [1] = target: T1, CYP3A4 (Homo sapiens, UniProt P08684); test: Determination of IC50 against CYP3A4 by measurement of inhibition of testosterone metabolism (human liver microsomes, 6-β-OH-testosterone by LC-MS/MS); set-up: 0.1 mg/mL human liver microsomes; conditions: read-out: IC50 (Testo.)
Procedure: 2. Determination of IC50 Against CYP3A4 by Measurement of Inhibition of Testosterone Metabolism
This assay was performed using a standard 96 well plate design. […] The incubation substrate mix contains 25 μM testosterone, 0.1 mg/mL human liver microsomes, 1 mM NADPH, and potassium phosphate buffer (100 mM, pH 7.4). Quantitation of metabolite peak area ratio against an internal standard is determined by LC-MS/MS analysis. The production of 6-β-OH-testosterone from testosterone metabolism is determined after incubation for eight minutes by comparison to a standard curve generated for the metabolite
Samples were analyzed in the MRM mode using a Sciex API 3000 mass spectrometer (Applied Biosystems, Foster City, Calif.) with a Paradigm MS4 binary pump (Michrom BioResources Inc., Auburn, Calif.) and a LEAP CTC PAL autosampler (LEAP Technologies, Carrboro, N.C.). A Phenomenex Synergi, 4μ, Polar-RP, 10×2.0 mm column (Phenomenex, Torrance, Calif.) was used for separation with a mobile phase composition of: 0.1% formic acid in water (A) and: 0.1% formic acid in methanol (B). The following gradient was used: […]
The sample injection volume was 10 μL and flow was split post-column with 0.4 mL/min going to the mass spectrometer. Analysis was performed using the following API 3000 mass spectrometer settings: […]

CYP3A4 [2] = target: T1, CYP3A4; test: Determination of compound Kiapp against recombinant CYP3A4 enzyme (BFC fluorescent substrate)
Outline: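 Recombinant CYP3A4 (5.5 or 8 nM, with or without b5 depending on source) pre-incubated with inhibitor ≥30 min at room temperature in 100 mM sodium phosphate pH 7.0, 5 mM TCEP, 2% DMF. Reaction started with 200 uM NADPH and 5 uM BFC; initial fluorescence rates over 5 min fitted to Morrison tight-binding (non-partial) or Szedlacsek (partial) equations for Kiapp.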

CYP3A4 [3] = target: T1, CYP3A4; test: Determination of IC50 against CYP3A4 by measurement of inhibition of midazolam metabolism (human liver microsomes, 1-hydroxymidazolam by LC-MS/MS); set-up: 0.1 mg/mL human liver microsomes; conditions: 2 μM midazolam, 0.1 mg/mL human liver microsomes
Outline: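 Human liver microsomes (0.1 mg/mL) incubated 8 min with 2 μM midazolam and 1 mM NADPH in 100 mM potassium phosphate, pH 7.4. 1-Hydroxymidazolam quantified by LC-MS/MS (MRM) as peak area ratio to internal standard against a metabolite standard curve.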

[4] = Baculo. enzyme preparation, read-out: Kiapp (BFC, Baculo.)
[5] = Super. enzyme preparation, read-out: Kiapp (BFC, Super.)

T1 sequence (P08684 whole entry): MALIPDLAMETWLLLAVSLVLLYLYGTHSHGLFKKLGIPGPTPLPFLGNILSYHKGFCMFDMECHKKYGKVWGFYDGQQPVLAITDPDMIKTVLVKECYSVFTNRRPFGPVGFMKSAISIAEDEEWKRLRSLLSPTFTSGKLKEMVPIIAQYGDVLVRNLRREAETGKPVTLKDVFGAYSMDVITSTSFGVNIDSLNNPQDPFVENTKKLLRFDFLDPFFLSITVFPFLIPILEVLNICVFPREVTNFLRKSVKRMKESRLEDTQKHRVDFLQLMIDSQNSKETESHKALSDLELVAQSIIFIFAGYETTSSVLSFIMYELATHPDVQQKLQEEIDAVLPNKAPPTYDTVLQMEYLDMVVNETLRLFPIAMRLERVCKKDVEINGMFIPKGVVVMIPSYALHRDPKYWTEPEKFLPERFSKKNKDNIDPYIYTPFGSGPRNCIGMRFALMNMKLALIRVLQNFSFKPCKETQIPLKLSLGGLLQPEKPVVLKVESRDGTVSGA

CN(Cc1ccccc1F)C(=O)c1ccccc1S(=O)(=O)Nc1cccnc1 [Example 73, N-(2-fluorobenzyl)-N-methyl-2-[(pyridin-3-ylamino)sulfonyl]benzamide]
pIC50 (CYP3A4 [1]): > 8.52
pKi (CYP3A4 [2]; [4]): 6.91
pKi (CYP3A4 [2]; [5]): 7.97
pIC50 (CYP3A4 [3]): 7.42

COc1cncc(NS(=O)(=O)c2ccc(Cl)cc2C(=O)NCCC(C)C)c1 [Example 295, 5-chloro-2-{[(5-methoxypyridin-3-yl)amino]sulfonyl}-N-(3-methylbutyl)benzamide]
pIC50 (CYP3A4 [1]): 6.64
pKi (CYP3A4 [2]; [4]): 6.74
pKi (CYP3A4 [2]; [5]): 7.38
pIC50 (CYP3A4 [3]): 7.38

O=C(NC1CCC1)c1ccccc1S(=O)(=O)Nc1cccnc1 [Example 65, N-cyclobutyl-2-[(pyridin-3-ylamino)sulfonyl]benzamide]
pIC50 (CYP3A4 [1]): 6.67
pKi (CYP3A4 [2]; [4]): 6.04
pIC50 (CYP3A4 [3]): 6.60

CCCCNC(=O)c1ccccc1S(=O)(=O)Nc1cncc(OC)c1 [Example 17, N-butyl-2-{[(5-methoxypyridin-3-yl)amino]sulfonyl}benzamide]
pIC50 (CYP3A4 [1]): 7.21
pKi (CYP3A4 [2]; [4]): 6.88
pIC50 (CYP3A4 [3]): 7.59

C[C@@H]1CN(C(=O)c2ccccc2S(=O)(=O)Nc2cccnc2)C[C@H](C)O1 [Example 27, 2-{[(2R,6S)-2,6-dimethylmorpholin-4-yl]carbonyl}-N-pyridin-3-ylbenzenesulfonamide]
pIC50 (CYP3A4 [1]): < 6.12
pKi (CYP3A4 [2]; [4]): < 6.00
pIC50 (CYP3A4 [3]): 6.18

COc1cncc(NS(=O)(=O)c2ccccc2C(=O)NCc2c(F)ccc(C)c2F)c1 [Example 180, N-(2,6-difluoro-3-methylbenzyl)-2-{[(5-methoxypyridin-3-yl)amino]sulfonyl}benzamide]
pIC50 (CYP3A4 [1]): 7.96
pKi (CYP3A4 [2]; [4]): 7.03
pKi (CYP3A4 [2]; [5]): 8.15
pIC50 (CYP3A4 [3]): 8.40

CCCCCN(C)C(=O)c1cc(Cl)ccc1S(=O)(=O)Nc1cncc(OC)c1 [Example 268, 5-chloro-2-{[(5-methoxypyridin-3-yl)amino]sulfonyl}-N-methyl-N-pentylbenzamide]
pIC50 (CYP3A4 [1]): 7.20
pKi (CYP3A4 [2]; [4]): 6.96
pKi (CYP3A4 [2]; [5]): 7.71
pIC50 (CYP3A4 [3]): 7.36

COc1cncc(NS(=O)(=O)c2ccccc2C(=O)NCc2ccc3c(c2)CCO3)c1 [Example 153, N-(2,3-dihydro-1-benzofuran-5-ylmethyl)-2-{[(5-methoxypyridin-3-yl)amino]sulfonyl}benzamide]
pIC50 (CYP3A4 [1]): 7.72
pKi (CYP3A4 [2]; [4]): 6.58
pKi (CYP3A4 [2]; [5]): 7.57
pIC50 (CYP3A4 [3]): 8.30

CC(C)(NC(=O)c1ccccc1S(=O)(=O)Nc1cccnc1)C1CC1 [Example 4, N-(1-cyclopropyl-1-methylethyl)-2-[(pyridin-3-ylamino)sulfonyl]benzamide]
pIC50 (CYP3A4 [1]): 7.02
pKi (CYP3A4 [2]; [4]): 6.78
pKi (CYP3A4 [2]; [5]): 7.36
pIC50 (CYP3A4 [3]): 7.28

CCCCCNC(=O)c1ccccc1S(=O)(=O)N(C)c1cccnc1 [Example 340, 2-{[methyl(pyridin-3-yl)amino]sulfonyl}-N-pentylbenzamide]
pIC50 (CYP3A4 [1]): 7.36
pKi (CYP3A4 [2]; [4]): 6.47
pKi (CYP3A4 [2]; [5]): 7.04
pIC50 (CYP3A4 [3]): 7.39

CCCCN(C)C(=O)c1ccccc1S(=O)(=O)Nc1cncc(OC)c1 [Example 353, N-butyl-2-{[(5-methoxypyridin-3-yl)amino]sulfonyl}-N-methylbenzamide]
pIC50 (CYP3A4 [1]): 7.51
pKi (CYP3A4 [2]; [4]): 7.55
pKi (CYP3A4 [2]; [5]): 7.94
pIC50 (CYP3A4 [3]): 7.74

O=C(NCC1CCCC1)c1ccccc1S(=O)(=O)Nc1cccnc1 [Example 64, N-(cyclopentylmethyl)-2-[(pyridin-3-ylamino)sulfonyl]benzamide]
pIC50 (CYP3A4 [1]): 7.50
pKi (CYP3A4 [2]; [4]): 6.72
pKi (CYP3A4 [2]; [5]): 7.89
pIC50 (CYP3A4 [3]): 7.52

CC(C)NC(=O)c1ccccc1S(=O)(=O)Nc1cccnc1 [Example 49, N-isopropyl-2-[(pyridin-3-ylamino)sulfonyl]benzamide]
pIC50 (CYP3A4 [1]): < 6.30
pKi (CYP3A4 [2]; [4]): < 6.00
pIC50 (CYP3A4 [3]): 6.48

COc1cncc(NS(=O)(=O)c2ccccc2C(=O)NCc2ccccc2F)c1 [Example 378, N-(2-fluorobenzyl)-2-{[(5-methoxypyridin-3-yl)amino]sulfonyl}benzamide]
pIC50 (CYP3A4 [1]): 7.85
pKi (CYP3A4 [2]; [4]): 7.11
pKi (CYP3A4 [2]; [5]): 7.73
pIC50 (CYP3A4 [3]): 7.89

Cc1cncc(NS(=O)(=O)c2ccccc2C(=O)NCc2ccc(F)c(Cl)c2)c1 [Example 158, N-(3-chloro-4-fluorobenzyl)-2-{[(5-methylpyridin-3-yl)amino]sulfonyl}benzamide]
pIC50 (CYP3A4 [1]): 8.00
pKi (CYP3A4 [2]; [4]): 7.71
pKi (CYP3A4 [2]; [5]): 9.05
pIC50 (CYP3A4 [3]): 8.22

CC(C)(CN1CCCCC1)NC(=O)c1ccccc1S(=O)(=O)Nc1cccnc1 [Example 2, N-(1,1-dimethyl-2 piperidin-1-ylethyl)-2-[(pyridin-3-ylamino)sulfonyl]benzamide]
pIC50 (CYP3A4 [1]): < 6.12
pKi (CYP3A4 [2]; [4]): 6.05
pKi (CYP3A4 [2]; [5]): 6.24
pIC50 (CYP3A4 [3]): < 6.12

O=C(NCc1cccc(F)c1)c1ccccc1S(=O)(=O)Nc1cccnc1 [Example 43, N-(3-fluorobenzyl)-2-[(pyridin-3-ylamino)sulfonyl]benzamide]
pIC50 (CYP3A4 [1]): 7.66
pKi (CYP3A4 [2]; [4]): 6.57
pKi (CYP3A4 [2]; [5]): 7.78
pIC50 (CYP3A4 [3]): 7.87

Cc1ccccc1CCNC(=O)c1ccccc1S(=O)(=O)Nc1cccnc1 [Example 75, N-[2-(2-methylphenyl)ethyl]-2-[(pyridin-3-ylamino)sulfonyl]benzamide]
pIC50 (CYP3A4 [1]): 7.89
pKi (CYP3A4 [2]; [4]): 7.37
pKi (CYP3A4 [2]; [5]): 8.62
pIC50 (CYP3A4 [3]): 7.80

COc1cncc(NS(=O)(=O)c2ccccc2C(=O)N2CCC(C)CC2)c1 [Example 389, N-(5-methoxypyridin-3-yl)-2-[(4-methylpiperidin-1-yl)carbonyl]benzenesulfonamide]
pIC50 (CYP3A4 [1]): 7.24
pKi (CYP3A4 [2]; [4]): 6.62
pKi (CYP3A4 [2]; [5]): 8.55
pIC50 (CYP3A4 [3]): 7.62

CCCN(CC1CC1)C(=O)c1ccccc1S(=O)(=O)Nc1cncc(C)c1 [Example 331, N-(cyclopropylmethyl)-2-{[(5-methylpyridin-3-yl)amino]sulfonyl}-N-propylbenzamide]
pIC50 (CYP3A4 [1]): 7.85
pKi (CYP3A4 [2]; [4]): 7.12
pKi (CYP3A4 [2]; [5]): 7.96
pIC50 (CYP3A4 [3]): 7.92

Cc1ccncc1NS(=O)(=O)c1ccccc1C(=O)NCCOc1ccccc1 [Example 171, 2-{[(4-methylpyridin-3-yl)amino]sulfonyl}-N-(2-phenoxyethyl)benzamide]
pIC50 (CYP3A4 [1]): 7.42
pKi (CYP3A4 [2]; [4]): 6.52
pKi (CYP3A4 [2]; [5]): 7.31
pIC50 (CYP3A4 [3]): 7.46

CC(C)(O)c1ccc(CNC(=O)c2ccccc2S(=O)(=O)Nc2cccnc2)cc1 [Example 86, N-[4-(1-hydroxy-1-methylethyl)benzyl]-2-[(pyridin-3-ylamino)sulfonyl]benzamide]
pIC50 (CYP3A4 [1]): 7.57
pKi (CYP3A4 [2]; [4]): < 6.00
pKi (CYP3A4 [2]; [5]): 6.68
pIC50 (CYP3A4 [3]): 6.93

O=C(NCc1cccc2[nH]ccc12)c1ccccc1S(=O)(=O)Nc1cccnc1 [Example 52, N-(1H-indol-4-ylmethyl)-2-[(pyridin-3-ylamino)sulfonyl]benzamide]
pIC50 (CYP3A4 [1]): 7.14
pKi (CYP3A4 [2]; [4]): 6.25
pIC50 (CYP3A4 [3]): 7.57

CCC(C)NC(=O)c1ccccc1S(=O)(=O)Nc1cncc(OC)c1 (stereo not drawn) [Example 205, N-(sec-butyl)-2-{[(5-methoxypyridin-3-yl)amino]sulfonyl}benzamide]
pIC50 (CYP3A4 [1]): 7.57
pKi (CYP3A4 [2]; [4]): 6.69
pKi (CYP3A4 [2]; [5]): 7.38
pIC50 (CYP3A4 [3]): > 7.81

Cc1cncc(NS(=O)(=O)c2ccccc2C(=O)NCc2ccc(S(C)(=O)=O)cc2)c1 [Example 159, 2-{[(5-methylpyridin-3-yl)amino]sulfonyl}-N-[4-(methylsulfonyl)benzyl]benzamide]
pIC50 (CYP3A4 [1]): 6.89
pKi (CYP3A4 [2]; [4]): 6.12
pKi (CYP3A4 [2]; [5]): 6.84
pIC50 (CYP3A4 [3]): 7.19

CN(CC1CCCC1)C(=O)c1ccccc1S(=O)(=O)Nc1cccnc1 [Example 324, N-(cyclopentylmethyl)-N-methyl-2-[(pyridin-3-ylamino)sulfonyl]benzamide]
pIC50 (CYP3A4 [1]): 7.70
pKi (CYP3A4 [2]; [4]): 7.07
pKi (CYP3A4 [2]; [5]): 7.66
pIC50 (CYP3A4 [3]): 7.96

COc1cncc(NS(=O)(=O)c2ccccc2C(=O)NCc2ccc(F)c(Cl)c2)c1 [Example 262, N-(3-chloro-4-fluorobenzyl)-2-{[(5-methoxypyridin-3-yl)amino]sulfonyl}benzamide]
pIC50 (CYP3A4 [1]): 8.12
pKi (CYP3A4 [2]; [4]): 7.99
pKi (CYP3A4 [2]; [5]): 8.79
pIC50 (CYP3A4 [3]): 8.30

COc1ccc(CNC(=O)c2ccccc2S(=O)(=O)Nc2cccnc2)cc1 [Example 57, N-(4-methoxybenzyl)-2-[(pyridin-3-ylamino)sulfonyl]benzamide]
pIC50 (CYP3A4 [1]): 7.03
pKi (CYP3A4 [2]; [4]): 6.45
pKi (CYP3A4 [2]; [5]): 7.46
pIC50 (CYP3A4 [3]): 7.16

COc1cncc(NS(=O)(=O)c2ccc(F)cc2C(=O)NCc2ccc(F)cc2)c1 [Example 307, 5-fluoro-N-(4-fluorobenzyl)-2-{[(5-methoxypyridin-3-yl)amino]sulfonyl}benzamide]
pIC50 (CYP3A4 [1]): 7.44
pKi (CYP3A4 [2]; [4]): 6.84
pKi (CYP3A4 [2]; [5]): 7.77
pIC50 (CYP3A4 [3]): 7.36
